Key:
Type in all cases: in vivo, rat
[1] = DIO rats, amylin and exendin-4 analog, body weight and body composition (Example 6)
Description: […]. Prior to drug administration rats had typically attained a mean body weight of 500 g Exendin-4 analog was administered by minipump at a range of doses (0.3, 1, 3, 10, 30 μg/kg/day). Amylin (dissolved in 50% DMSO in water) or vehicle was administered by mini-pump (100 μg/kg/day). Body weight and food intake was recorded daily. Body composition was measured prior to and after drug treatment using NMR (Echo Medical Systems, Houston, Tex.). For body composition measurements, rats were briefly placed (˜1 min) in a well-ventilated plexiglass tube that was then inserted into a specialized rodent NMR machine. Rats were scanned prior to pump implantation and on the final day of the experiment. This enabled the calculation of changes in actual grams of fat and dry lean tissue (e.g., grams of body fat after treatment−grams of body fat at baseline=change in grams of body fat) and changes in % body composition for fat and dry lean tissue (e.g., % body fat after treatment−% body fat at baseline=change in % body fat).

[2] = Serum leptin levels by immunoassay in DIO prone and normal HSD rats after amylin (Example 3); conditions: amylin 100 μg/kg/day, 14 days, FIG. 8
Description: DIO prone and normal HSD rats were divided into three treatment groups. Two groups were implanted with subcutaneous osmotic mini-pumps (DURECT Corp., Cupertino, Calif.) designed to deliver vehicle or amylin (100 μg/kg/day) and the third group was pair-fed to the amount consumed by the amylin-treated group for a 14 day period. Serum leptin levels were determined by immunoassays using a commercial kit (Linco Research, Inc., St. Charles, Mo.). […] Thus, DIO prone rats are hyper-leptinemic.

[3] = DIO rats, amylin and phentermine, body weight and body composition (Example 4)
Description: The combination of amylin and catecholaminergic agonist, phentermine, were also tested for effects on changes in body weight and body composition. Phentermine is classically referred to as a catecholaminergic agonist as it actually hits NA/5-HT receptors. DIO male rats were fattened and divided into four treatment groups, as described above. Each group was implanted with subcutaneous osmotic mini-pumps and/or inserted with an oral gavage, designed to deliver vehicle, phentermine (10 mg/kg/day), amylin (100 μg/kg/day) or phentermine (10 mg/kg/day)+amylin (100 μg/kg/day) for a 14 day period. The mini-pump contained either vehicle (50% DMSO in water) or amylin while the oral gavage administered either sterile water or phentermine. Body weight was recorded daily and body composition was measured prior to and after drug treatment using NMR.

[4] = DIO rats, amylin and PYY(3-36), body weight and body composition (Example 7)
Description: Each group was implanted with subcutaneous osmotic mini-pumps, designed to deliver vehicle, PYY(3-36) (1000 μg/kg/day), amylin (100 μg/kg/day) or PYY(3-36) (1000 μg/kg/day)+amylin (100 μg/kg/day) for a 14 day period. PYY(3-36) was administered by mini-pump at a range of doses (100, 200, 400, 800, 1000 μg/kg/day). Amylin 100 μg/kg/day (dissolved in 50% DMSO sterile water), PYY(3-36) (dissolved in 50% DMSO sterile water) or vehicle was administered by mini-pump. Food intake and body weight was recorded daily. Body composition was measured prior to and after drug treatment using NMR (Echo Medical Systems, Houston, Tex.). For body composition measurements, rats were briefly placed (˜1 min) in a well-ventilated plexiglass tube that was then inserted into a specialized rodent NMR machine. Rats were scanned prior to pump implantation and on the final day of the experiment. This enabled the calculation of changes in actual grams of fat and dry lean tissue (e.g., grams of body fat after treatment−grams of body fat at baseline […]) and changes in % body composition for fat and dry lean tissue (e.g., % body fat after treatment−% body fat at baseline=change in % body fat).

[5] = DIO (Levin) rats, amylin and CB-1 antagonist rimonabant, body weight and body composition (Example 5)
Description: These rats were developed by Barry Levin from a line of Crl:CD®(SD)BR rats that are prone to become obese on a diet relatively high in fat and energy. They were housed individually in shoebox cages at 22 C in a 12/12-hour light dark cycle. […] Rats were habituated to oral gavage for 1 week prior to treatment. Rimonabant was administered at a range of doses (0.1, 0.3, 1.0, 3.0. 10 mg/kg/day) by oral gavage. Amylin (dissolved in 50% DMSO sterile water) or vehicle was administered by mini-pump (100 μg/kg/day). Rimonabant was always delivered just prior to lights out. Food intake and body weight were measured at 1 and 2 weeks post-treatment. Body composition was measured prior to and after drug treatment using NMR (Echo Medical Systems, Houston, Tex.). For body composition measurements, rats were briefly placed (˜1 min) in a well-ventilated plexiglass tube that was then inserted into a specialized rodent NMR machine. Rats were scanned prior to pump implantation and on the final day of the experiment. This enabled the calculation of changes in actual grams of fat and dry lean tissue (e.g., grams of body fat after treatment−grams of body fat at baseline=change in grams of body fat) and changes in % body composition for fat and dry lean tissue (e.g., % body fat after treatment−% body fat at baseline=change in % body fat).

[6] = DIO rats, amylin and sibutramine, body weight and body composition (Example 4)
Description: (§1) Rat amylin was dissolved in 50% DMSO in sterile water and sibutramine was dissolved in sterile water. Each group was implanted with subcutaneous osmotic mini-pumps designed to deliver vehicle, sibutramine (3 mg/kg/day) or amylin (100 μg/kg/day) for a 14 day period. Body weight and food intake were recorded daily. Body composition was measured prior to and after drug treatment using NMR (Echo Medical Systems, Houston, Tex.). For body composition measurements, rats were briefly placed (˜1 min) in a well-ventilated plexiglass tube that was then inserted into a specialized rodent NMR machine. Rats were scanned prior to pump implantation and on the final day of the experiment. This enabled the calculation of changes in actual grams of fat and dry lean tissue (e.g., grams of body fat after treatment−grams of body fat at baseline=change in grams of body fat) and changes in % body composition for fat and dry lean tissue (e.g., % body fat after treatment−% body fat at baseline=change in % body fat).

[7] = Pair-feeding experiment in DIO rats, amylin+leptin (Example 2); conditions: two weeks, ad libitum access to food, FIG. 7
Description: Amylin is known to have an anorectic effect on a recipient. In order to examine the effect of amylin+leptin in the context of an anorectic effect of amylin, a pair-feeding experiment was performed. DIO rats and drug treatment groups were established as described above. DIO rats in the vehicle, amylin, and amylin+leptin treatment groups had ad libitum access to food, while intake in the pair-fed leptin treatment was restricted to the amount consumed by the amylin-treated group. Body weight was recorded daily for the two weeks of treatment. […] The combination of amylin+leptin results in a decrease of about 12% in body weight relative to vehicle control.

[8] = In-bred DIO (Levin) rats, amylin and leptin, body weight and NMR body composition (Example 2); conditions: two weeks, leptin 500 μg/kg/day, amylin 100 μg/kg/day, FIG. 6A
Description: They were housed individually in shoebox cages at 22 C in a 12/12-hour light dark cycle.
as §1, with “Body” for “Rat amylin was dissolved in 50% DMSO in sterile water and sibutramine was dissolved in sterile water. Each group was implanted with subcutaneous osmotic mini-pumps designed to deliver vehicle, sibutramine (3 mg/kg/day) or amylin (100 μg/kg/day) for a 14 day period. Body weight and food intake were recorded daily. Body”

In the case of Rat amylin, the “changes in body fat (fat mass)” value ([1]; after two weeks, FIG. 15B) is reported as “relatively equivalent decrease in fat mass”, the “changes in body protein (lean mass)” value ([1]; after two weeks, FIG. 15C) is reported as “relatively equivalent increase in lean (protein) mass” and the “vehicle-corrected decrease in percent body weight” value ([1]; two weeks, exendin-4 analog 10 μg/kg/day, amylin 100 μg/kg/day, FIG. 15A) is reported as about 6%. The “serum (plasma) leptin levels” value ([2]; DIO prone rats) was “significantly reduced”, the “serum (plasma) leptin levels” value ([2]; normal HSD rats) was “significantly reduced” and the “changes in body fat (fat mass)” value ([3]; after two weeks, FIG. 11B) was “greater amount of fat mass loss”. The “changes in body protein (lean mass)” value ([3]; after two weeks, FIG. 11C) was “preserved lean (protein) mass”, the “vehicle-corrected decrease in percent body weight” value ([3]; two weeks, phentermine 10 mg/kg/day oral gavage, amylin 100 μg/kg/day, FIG. 11A) was about 7% and the “changes in body protein (lean mass)” value ([4]; after two weeks, FIG. 16C) was “increase in lean (protein) mass”. The “changes in body fat (fat mass loss)” value ([4]; after two weeks, order PYY(3-36) alone, amylin alone, combination, FIG. 16B) was “Increasing amount of fat mass loss”, the “vehicle-corrected decrease in percent body weight” value ([4]; two weeks, PYY(3-36) 1000 μg/kg/day, amylin 100 μg/kg/day, FIG. 16A) was about 7% and the “changes in body fat (fat mass)” value ([5]; after two weeks, FIG. 12B) was “Fat mass loss was evident”. The “changes in body protein (lean mass)” value ([5]; after two weeks, FIG. 12C) was “relatively equivalent increase in lean (protein) mass”, the “vehicle-corrected decrease in percent body weight” value ([5]; two weeks, rimonabant 3 mg/kg/day oral gavage, amylin 100 μg/kg/day, FIG. 12A) was about 6% and the “changes in body fat (fat mass)” value ([6]; after two weeks, FIG. 10B) was “Fat mass loss was evident”. The “changes in body protein (lean mass)” value ([6]; after two weeks, FIG. 10C) was “increase in lean (protein) mass”, the “vehicle-corrected decrease in percent body weight” value ([6]; two weeks, sibutramine 3 mg/kg/day, amylin 100 μg/kg/day, FIG. 10A) was about 6% and the “decrease in body weight relative to vehicle control” value [7] was about 6%. For the same substance, the “vehicle-corrected decrease in percent body weight” value [8] was 6%.
